This is an account of results in PubChem BioAssay (NCI).

Holding throughout (assay): inhibition of tumour cell growth, NCI panel, 48 h
Assay [1] deals with HL-60(TB) leukemia.
The test system of assay [2] is OVCAR-8 ovarian.
Assay [3] concerns SF-295 CNS.
Assay [4] has as its system SW-620 colon.
Assay [5] relates to SK-OV-3 ovarian.
For assay [6], the system named is UACC-62 melanoma.
In assay [7] the test system is A498 renal.
Assay [8] has as its system CAKI-1 renal.
Assay [9] relates to DU-145 prostate.

“And” between values parts separate entries of the source, which are not always exact repeats. Identical values can stand only once.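 Values below derive from 48-hour exposures of cells grown in 96-well plates, with endpoints linearly interpolated between the two concentrations bracketing the appropriate inhibition level. Here, GI50 denotes the concentration required for 50% inhibition of growth. At the TGI there is no net growth.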

Take `COCCOCOC(C)(C)[C@H](CCOC(C)=O)O[Si](c1ccccc1)(c1ccccc1)C(C)(C)C`: the TGI in assay [1] was 10.4 µM; in [2], 75.2 µM; in assay [3], 55.5 µM; in assay [4], over 100 µM; in [5], over 100 µM; in assay [6], 55.3 µM. Also, the TGI in assay [7] was 68.4 µM; in [8], over 100 µM.
As to `NC(=O)C12CC3CC(CC(Br)(C3)C1)C2`, the TGI in [1], in assay [2], in assay [3], in assay [4], in [5] and in assay [6] was over 100 µM each time. The TGI in assay [7] and in assay [8] was over 100 µM each time.
Turning to `O=C(N/C(=C\c1cc(Cl)ccc1Cl)c1nc2ccc(Cl)cc2[nH]1)c1ccccc1`, the TGI was 37.1 µM in assay [1]; 31.6 µM in [2]; 31.3 µM in [3]; 31.1 µM in [4]; 51.8 µM in assay [5]; 24.8 µM in assay [6]. For the same compound, the results for the TGI in assay [7] and in [8] were 41.9 µM and 66.4 µM, respectively.
For the compound `COC/N=C(/N)NC#N`, the TGI was over 100 µM in assay [1]; over 100 µM in assay [2]; over 100 µM in [3]; 33.6 µM in assay [4]; over 100 µM in [5]; over 100 µM in [6]. Also, the TGI in assay [7] and in [8] was over 100 µM in each case.
Regarding `C/C(=C\Cc1cc(O)ccc1O)CCc1c(C)c(O)c(O)c(C=O)c1C`, the TGI in [1] is over 100 µM; in [2], 47 µM; in assay [3], 91.5 µM; in assay [4], over 100 µM; in assay [5] it was 95.7 µM; in [7], over 100 µM. In assay [8], the TGI is 85.6 µM.
As to `COc1ccc(Cc2nc3ccccc3s2)cc1OC`, the TGI in assay [1] came out at 45.3 µM; in [2], 30.9 µM; in assay [3], 28.9 µM; in [4], 32.7 µM; in assay [5], 43.5 µM; in assay [6] it was 31.4 µM. Also, the figures for the TGI in [7] and in assay [8] were 49.5 µM and 31.3 µM, respectively.
On to `COc1cc(/C=C\c2ccncc2)cc(OC)c1OC`, for which the TGI in assay [1], in assay [2], in assay [3], in assay [4], in assay [6] and in assay [7] was over 100 µM each time. Moreover, the TGI in assay [8] is over 100 µM.
With `COC(=O)/C(C#N)=C1\CCc2ccccc21`, the TGI in [1], in [2], in [3], in assay [4], in [5] and in assay [6] was over 100 µM each time. Besides, the TGI in assay [7] and in [8] was over 100 µM in each case.
As for `Cc1cc(C)nc(NS(=O)(=O)c2ccc(NC(=O)c3cccn4c(=O)c5ccccc5nc34)cc2)n1`, the TGI in assay [1] is 44.1 µM; in assay [2] it was 85.2 µM; in assay [3], over 100 µM; in [4] it was over 100 µM; in [6], 51.9 µM.
In the case of `COC(=O)C#CCC1CCCC1C1SCCS1` (configuration not stated), the TGI in assay [1], in assay [2], in [3], in [4], in assay [5] and in [6] was over 100 µM each time. In addition, the TGI in [7] and in [8] was over 100 µM throughout.
For the compound `N.N.N.N.N.O=S(=O)([O-])C(F)(F)F.O=S(=O)([O-])C(F)(F)F.[Os+8]`, the GI50 in assay [1] was 8.92 µM; in assay [2], 13.5 µM; in assay [3], 8.07 µM; in [4] it was 8.48 µM; in [5] it was 20.6 µM; in [6] it was 12.1 µM. The results for the GI50 in assay [7] and in assay [8] were 12 µM and 6.61 µM, respectively. In addition, the TGI in [1] amounted to 36.2 µM; in assay [2], 86.7 µM; in assay [3], 62.8 µM; in assay [4] it was 41.4 µM; in [5] it was 60.2 µM; in [6] it was 28.2 µM. The TGI in assay [7] came out at 29.5 µM; in assay [8], 30.6 µM.
On to `CCN(CC)CCCC(C)Nc1c(Sc2cnc3cc(Cl)ccc3c2NC(C)CCCN(CC)CC)cnc2cc(Cl)ccc12` (configuration not stated), for which the TGI in assay [1] stood at 3.62 µM; in assay [2] it was 3.15 µM; in assay [4] it was 2.92 µM; in assay [5], 3.08 µM; in assay [6], 3.13 µM; in assay [7], 3.31 µM. The compound also gave a TGI in [8] of 2.86 µM.
Consider `CC1=NN(C(=O)c2ccc(Cl)cc2)C(=O)/C1=C/c1ccc(Cl)cc1`, for which the TGI in [1], in [2], in [3], in assay [4], in assay [5] and in [6] was over 100 µM in each case. For the same compound, the TGI in assay [7] and in [8] was over 100 µM in each case.
On to `CCCCc1c2c(nc3c1CCc1cc4cc5c(nc4nc1-3)-c1nc3c(c(CCCC)c1CC5)CCC/C3=C\c1ccccc1)/C(=C/c1ccccc1)CCC2`, for which the TGI in [1], in assay [2], in assay [3], in assay [4], in assay [5] and in assay [6] was over 100 µM in each case.
Regarding `C#C[C@H]1CCCCCC1O` (some centres not stated), the TGI in assay [1] was over 100 µM; in assay [2], over 100 µM; in [3], over 100 µM; in [4], 69.8 µM; in [5], over 100 µM; in assay [6], over 100 µM. The TGI in assay [7] and in assay [8] was over 100 µM in each case.
In the case of `CC(=O)Nc1ccc(C(=O)NN2C(=O)C(Cl)C2c2ccc(O)cc2)cc1` (configuration not stated), the TGI in assay [1], in assay [2], in assay [3], in [4], in assay [5] and in assay [6] was over 100 µM throughout. Besides, the TGI in assay [7] and in [8] was over 100 µM in each case.
Take `COC1(C)C(=O)N2C1N(C(=O)OCc1ccccc1)CC2(C)C` (configuration not stated): the TGI in assay [1], in assay [2], in assay [3], in [4], in assay [6] and in assay [7] was over 100 µM throughout.
Take `COc1cccc2c1[C@H]1CO[C@H]3C4C[C@H](C(=O)O)C([C@@H](C2)N13)N4C` (some centres not stated): the GI50 is 0.368 µM in assay [1]; 2.81 µM and 0.888 µM in assay [2]; 3.61 µM in assay [4]; 6.06 µM and 0.803 µM in [5]; 0.0475 µM in [6]; 2.17 µM and 2.9 µM in assay [8]. The TGI in [1] is 4.03 µM and 1.85 µM; in assay [2], 7.05 µM and 34.4 µM; in assay [3], over 41.8 µM; in assay [4], 8.4 µM and 5.82 µM; in assay [5], 7.84 µM and 1.75 µM; in assay [8] it was 6.06 µM and 28.8 µM.
Consider `COc1ccc(-c2onc(-c3c(C)cc(C)cc3C)c2C2=NCCN2)cc1`, for which the TGI is 59.3 µM in assay [1]; over 100 µM in [2]; 35.3 µM in assay [3]; over 100 µM in assay [4]; over 100 µM in [5]; over 100 µM in assay [6]. Moreover, the TGI in assay [8] is over 100 µM.
Turning to `CC(=O)NNc1nc(C)c(C(=O)/C=C/c2ccc(/C=C/C(=O)c3sc(NNC(C)=O)nc3C)cc2)s1`, the TGI in assay [1], in [2], in assay [3], in [4], in assay [5] and in [6] was over 100 µM in each case. In assay [8], this compound gave a TGI of over 100 µM.
Regarding `Nc1cc2cccc[n+]2c2cccc(Cl)c12`, the GI50 is 47.4 µM in assay [1]; 46.4 µM in assay [9]; 24.1 µM in [2]; 33.4 µM in [3]; 34.2 µM in assay [4]; 24.7 µM in [6]. Further, in [6], the TGI was 59.8 µM.
Regarding `O=C(COc1ccc(Cl)cc1)N1CCN(C(=O)COc2ccc(Cl)cc2)c2ccccc21`, the TGI in assay [1] was 37.2 µM; in assay [2] it was over 100 µM; in [3], over 100 µM; in assay [4], over 100 µM; in assay [5], over 100 µM; in assay [7], over 100 µM.
In the case of `Nc1ccc(C(=O)NN2C(=O)C(Cl)C2c2cccc(O)c2)cc1` (configuration not stated), the TGI came to 8.76 µM in [1]; 54.4 µM in [2]; 35.2 µM in assay [3]; 36.6 µM in assay [4]; 34.3 µM in assay [5]; 32 µM in [6]. In addition, the TGI in [7] was found to be 58.1 µM; in [8], 41.9 µM.
For the compound `O=C(CCc1nc(=S)[nH][nH]1)Nc1cccc(C(F)(F)F)c1`, the TGI in [1] is over 100 µM; in [2] it was over 100 µM; in [3], over 100 µM; in assay [4], 28.5 µM; in assay [5], over 100 µM; in assay [6] it was over 100 µM. The TGI in assay [7] and in assay [8] was over 100 µM throughout.
With `CCC[CH2][Sn]([CH2]CCC)([O]C(=O)/C=C/c1ccccc1F)[O]C(=O)/C=C/c1ccccc1F`, the GI50 in assay [1] is 0.536 µM; in [2], 0.98 µM; in assay [3] it was 1.43 µM; in assay [4], 0.205 µM; in [5], 2.04 µM; in [6] it was 1.17 µM. The GI50 in [7] was 1.09 µM; in assay [8], 0.436 µM. Besides, the TGI in assay [1] amounted to 4.87 µM; in assay [2], 2.2 µM; in assay [3], 2.78 µM; in assay [4] it was 0.479 µM; in [5], 4.48 µM; in [6], 2.59 µM. Also, the figures for the TGI in assay [7] and in assay [8] were 2.29 µM and 1.79 µM, respectively.
As for `CCCCCCCCCCCCCP(=O)(NCC(N)=O)OCC` (configuration not stated), the TGI turned out to be 38.2 µM in assay [1]; 45.8 µM in assay [2]; 31.2 µM in [3]; 41 µM in assay [4]; 41.8 µM in [5]; 33 µM in [6]. The compound further showed a TGI in assay [7] of 95.7 µM.
On to `Cc1nc2c(sc(=S)n2-c2ccccc2)c2nc3ccccc3n12`, for which the TGI in assay [1], in assay [2], in assay [3], in assay [5], in assay [6] and in assay [8] was over 100 µM in each case.
Take `O=C(NCC(=O)N1CCOC1=O)OCc1ccccc1`: the TGI in assay [1], in assay [2], in assay [3], in assay [4], in assay [5] and in assay [6] was over 100 µM each time. In [7], this compound yielded a TGI of over 100 µM.
For the compound `Cc1ccc(NC(=O)CC2SC(N)=NC2=O)cc1C` (configuration not stated), the TGI in [1], in [2], in [3], in assay [4], in assay [5] and in assay [6] was over 100 µM each time. Also, the TGI in assay [8] was over 100 µM.
With `O=C(O)COc1ccc(C(=O)/C(SS/C(C(=O)c2ccc(OCC(=O)O)c(Cl)c2Cl)=C2\C=C(c3ccc(Br)cc3)SS2)=C2/C=C(c3ccc(Br)cc3)SS2)c(Cl)c1Cl`, the TGI is 4.67 µM in assay [1]; over 100 µM in [9]; over 76 µM in assay [2]; 43.3 µM in assay [3]; 31.2 µM in assay [4]; over 89.5 µM in assay [5]. Moreover, the TGI in [6] is 19.3 µM; in assay [7], over 91.7 µM; in assay [8], 99.4 µM.
Take `Nc1ccc(C(=O)N/C(=C\c2cccc([N+](=O)[O-])c2)c2nc3ccc(Cl)cc3[nH]2)cc1`: the TGI in assay [2], in [3], in [4], in assay [5], in assay [6] and in [8] was over 100 µM in each case.
